Laboratory results from ChEMBL document CHEMBL3997785, “Optimization of 2-Anilino 4-Amino Substituted Quinazolines into Potent Antimalarial Agents with Oral in Vivo Activity” (J Med Chem, 2017).
pEC50: −log10 of the molar value. Converted amounts (≈) assume the structure as drawn. The source made the active and inactive calls. The rule behind the calls is not given here.

Legend:
[1] = Hepatic extraction ratio in mouse liver microsomes at 1 uM in presence of NADPH by LC-MS method; format: ADME, microsome; settings: read-out: ERH
[2] = Half life in mouse liver microsomes at 1 uM in presence of NADPH by LC-MS method; format: ADME, microsome
Plasmodium falciparum [3] = assay: Antimalarial activity against synchronous culture of Plasmodium falciparum 3D7 infected in human erythrocytes assessed as development arrest at ring stage of asexual life cycle leading to parasite death at 10 times EC50 up to 48 hrs by Giemsa-staining based assay relative to control; format: functional, cell-based
Plasmodium berghei [4] = assay: Antimalarial activity against Plasmodium berghei ANKA infected Swiss black mouse at 20 mg/kg, ip administered for 4 days starting 4 hrs post infection by microscopic method; format: functional
[5] = Half life in human liver microsomes at 1 uM in presence of NADPH by LC-MS method; format: ADME, microsome
Plasmodium falciparum [6] = assay: Antimalarial activity against Plasmodium falciparum NF54 harboring pfs16-LUC-GFP ring stage gametocytes after 24 hrs by MitoTracker Red staining based confocal microscopy; format: functional; settings: NF54, 24 h
Plasmodium falciparum [7] = assay: Antimalarial activity against Plasmodium falciparum 3D7 infected in human erythrocytes assessed as arrest at trophozoite stage of asexual life cycle leading to parasite death at 10 times EC50 up to 48 hrs by Giemsa-staining based assay relative to control; format: functional, cell-based
[8] = Intrinsic clearance in human liver microsomes at 1 uM in presence of NADPH by LC-MS method; format: ADME, microsome; settings: read-out: CLH
HepG2 = assay: Cytotoxicity against human HepG2 cells assessed as growth inhibition after 48 hrs by Cell Titer-Glo assay; format: cell-based; settings: HepG2, 48 h
Plasmodium falciparum [9] = assay: Antimalarial activity against chloroquine and mefloquine resistant Plasmodium falciparum W2mef infected in human erythrocytes incubated for 72 hrs by LDH assay; format: functional, cell-based
Liver [10] = assay: Drug metabolism in human liver microsomes assessed as N-demethylation of methyl piperidine or piperazine at 1 uM after 60 mins in presence of NADPH by LC-MS method; format: ADME, microsome; settings: 1 h
[11] = Selectivity index, ratio of EC50 for human HepG2 cells to EC50 for Plasmodium falciparum 3D7 asexual blood stage infected in human erythrocytes; format: toxicity, cell-based; settings: read-out: Ratio EC50
Plasma [12] = assay: Drug uptake in Plasmodium berghei ANKA infected Swiss black mouse plasma at 20 mg/kg, po via gavage measured after 20 hrs; format: ADME, organism-based; settings: in vivo
Plasmodium falciparum [13] = assay: Antimalarial activity against Plasmodium falciparum NF54 harboring pfs16-LUC-GFP early stage 1 to 3 gametocytes after 48 hrs by MitoTracker Red staining based confocal microscopy; format: functional; settings: NF54, 48 h
Plasmodium falciparum [14] = assay: Antimalarial activity against synchronous culture of Plasmodium falciparum 3D7 ring stage parasite infected in human erythrocytes incubated for 6 hrs followed by compound wash out and measured after 24 hrs by NanoGlo-reagent based bioluminescence assay; format: functional, cell-based
Plasmodium falciparum [15] = assay: Antimalarial activity against Plasmodium falciparum 3D7 asexual blood stage infected in human erythrocytes incubated for 72 hrs by LDH assay; format: functional, cell-based; settings: 3D7, 72 h
Plasmodium falciparum [16] = assay: Antimalarial activity against synchronous culture of Plasmodium falciparum 3D7 ring stage parasite infected in human erythrocytes incubated for 24 hrs followed by compound wash out and measured after 24 hrs by NanoGlo-reagent based bioluminescence assay; format: functional, cell-based; settings: 3D7, 24 h
Plasmodium falciparum [17] = assay: Antimalarial activity against synchronous culture of Plasmodium falciparum 3D7 ring stage parasite infected in human erythrocytes incubated for 3 hrs followed by compound wash out and measured after 24 hrs by NanoGlo-reagent based bioluminescence assay; format: functional, cell-based
[18] = Aqueous solubility of the compound at pH 2 by nephelometry; format: physicochemical
Liver [19] = assay: Drug metabolism in human liver microsomes assessed as mono-oxygenation at 6th position of quinazoline at 1 uM after 60 mins in presence of NADPH by LC-MS method; format: ADME, microsome; settings: 1 h
[20] = Aqueous solubility of the compound at pH 6.5 by nephelometry; format: physicochemical
Plasmodium berghei [21] = assay: Antimalarial activity against Plasmodium berghei ANKA infected Swiss black mouse model at 20 mg/kg administered via oral gavage for 4 days starting 4 hrs post infection by microscopic method; format: functional
Liver [22] = assay: Drug metabolism in mouse liver microsomes assessed as N-demethylation of methyl piperidine or piperazine at 1 uM after 60 mins in presence of NADPH by LC-MS method; format: ADME, microsome; settings: 1 h
Liver [23] = assay: Drug metabolism in mouse liver microsomes assessed as hydro defluorination at 1 uM after 60 mins in presence of NADPH by LC-MS method; format: ADME, microsome; settings: 1 h
Plasma [24] = assay: Drug uptake in Plasmodium berghei ANKA infected Swiss black mouse plasma at 20 mg/kg, ip measured after 20 hrs; format: ADME, organism-based; settings: in vivo
[25] = Intrinsic clearance in mouse liver microsomes at 1 uM in presence of NADPH by LC-MS method; format: ADME, microsome; settings: read-out: CLH
Plasmodium falciparum [26] = assay: Antimalarial activity against Plasmodium falciparum NF54 harboring pfs16-LUC-GFP late stage 4 to 5 gametocytes after 48 hrs by MitoTracker Red staining based confocal microscopy; format: functional; settings: NF54, 48 h
[27] = Hepatic extraction ratio in human liver microsomes at 1 uM in presence of NADPH by LC-MS method; format: ADME, microsome; settings: read-out: ERH
[28] = Ratio of EC50 for Plasmodium falciparum NF54-pfs16-LUC-GFP early stage gametocytes to EC50 for Plasmodium falciparum 3D7 asexual blood stage infected in human erythrocytes; format: functional
Liver [29] = assay: Drug metabolism in mouse liver microsomes assessed as mono-oxygenation at 6th position of quinazoline at 1 uM after 60 mins in presence of NADPH by LC-MS method; format: ADME, microsome; settings: 1 h
Liver [30] = assay: Drug metabolism in human liver microsomes assessed as hydro defluorination at 1 uM after 60 mins in presence of NADPH by LC-MS method; format: ADME, microsome; settings: 1 h
[31] = Ratio of EC50 for Plasmodium falciparum NF54-pfs16-LUC-GFP ring stage gametocytes to EC50 for Plasmodium falciparum 3D7 asexual blood stage infected in human erythrocytes; format: functional
Liver [32] = assay: Drug metabolism in mouse liver microsomes assessed as O-demethylation of 6 and 7 methoxy groups at 1 uM after 60 mins in presence of NADPH by LC-MS method; format: ADME, microsome; settings: 1 h
Liver [33] = assay: Drug metabolism in human liver microsomes assessed as O-demethylation of 6 and 7 methoxy groups at 1 uM after 60 mins in presence of NADPH by LC-MS method; format: ADME, microsome; settings: 1 h

SMILES | hepatic extraction ratio at 1 µM [1] | half-life at 1 µM [2] [h] | Activity (Plasmodium falciparum [3]) | half-life at 1 µM [5] [h] | pEC50 (Plasmodium falciparum [6]) | Activity (Plasmodium falciparum [7]) | microsomal CLint at 1 µM [8] [µL/min/mg] | pEC50 (HepG2) | pEC50 (Plasmodium falciparum [9]) | Drug metabolism (Liver [10]) | selectivity ratio [11] | Drug uptake (Plasma [12]) | pEC50 (Plasmodium falciparum [13]) | pEC50 (Plasmodium falciparum [14]) | pEC50 (Plasmodium falciparum [15]) | pEC50 (Plasmodium falciparum [16]) | solubility kinetic [18] [µM] | solubility kinetic [20] [µM] | microsomal CLint at 1 µM [25] [µL/min/mg] | hepatic extraction ratio at 1 µM [27] | other results
CN1CCN(CCNc2nc(Nc3ccc(F)c(Cl)c3)nc3ccccc23)CC1.Cl.Cl | 0.55 | 0.5 | Active | > 4.25 | 6.75 | inactive | < 7 | 5.21 | 7.31 | Metabolite_Detected | 240 | Active | 6.49 | 5.53 | 7.59 | 6.49 | > 90 | 11.3 to 23 | 57 | < 0.22 | Activity (Plasmodium berghei [4]): >98%; Activity (Plasmodium falciparum [14]): Dose dependent effect; pEC50 (Plasmodium falciparum [17]): 5.60; Drug metabolism (Liver [19]): Metabolite_Detected; Activity (Plasmodium berghei [21]): >90%; Drug metabolism (Liver [22]): Metabolite_Detected; Drug metabolism (Liver [23]): Metabolite_Detected; Drug uptake (Plasma [24]): Active; pEC50 (Plasmodium falciparum [26]): 5.52; Ratio EC50 [28]: 15 - 25; Drug metabolism (Liver [29]): Metabolite_Detected; Drug metabolism (Liver [30]): Metabolite_Detected; Ratio EC50 [31]: 10
CN1CCC(Nc2nc(Nc3ccc(F)c(Cl)c3)nc3ccccc23)CC1.Cl.Cl | 0.2 | 2.48 | Active | > 4.25 | 6.65 | inactive | < 7 | 5.29 | 7.27 | Metabolite_Detected | 145 | Active | 6.29 |  | 7.46 |  | > 90 | 11.3 to 23 | 12 | < 0.22 | Drug metabolism (Liver [19]): Metabolite_Detected; Activity (Plasmodium berghei [21]): Active; Drug metabolism (Liver [22]): Metabolite_Detected; Drug metabolism (Liver [23]): Metabolite_Detected; Drug uptake (Plasma [24]): Active; pEC50 (Plasmodium falciparum [26]): 5.43; Ratio EC50 [28]: 15 - 25; Drug metabolism (Liver [29]): Metabolite_Detected; Drug metabolism (Liver [30]): Metabolite_Detected; Ratio EC50 [31]: 10
C[C@@H]1CC[C@H]2[C@@H](C)C(=O)O[C@@H]3O[C@@]4(C)CC[C@@H]1[C@]32OO4 [ARTEMISININ] |  |  |  |  |  |  |  |  |  |  |  |  |  | 8.30 |  | 8.70 |  |  |  |  | 
COc1cc2nc(Nc3ccc(F)cc3)nc(NCC3CCCO3)c2cc1OC (stereo unspecified) | 0.61 | 0.4 |  | 1.07 |  |  | 27 | 5.26 |  |  | 96 |  |  |  | 7.24 |  | 25 to 50 (≈ 9.96 to 19.9 µg/mL) | 3.1 to 6.3 (≈ 1.24 to 2.51 µg/mL) | 72 | 0.52 | Drug metabolism (Liver [32]): Metabolite_Detected; Drug metabolism (Liver [33]): Metabolite_Detected
